Measurements taken from the NIST ThermoML archive (doi:10.1021/je060271a).

Conditions: Liquid, Vibrating tube method

CCCCCCC(=O)OCC(COC(=O)CCCCCC)(COC(=O)CCCCCC)COC(=O)CCCCCC [pentaerythritol tetraheptanoate]
Conditions	mass density [kg/m3]
283.14 K, 30730 kPa	1002.4
283.14 K, 30755 kPa	1002.4
283.14 K, 30785 kPa	1002.4
283.14 K, 30810 kPa	1002.4
283.14 K, 30836 kPa	1002.5
283.14 K, 30861 kPa	1002.5
283.14 K, 30892 kPa	1002.6
283.14 K, 30917 kPa	1002.5
283.14 K, 30943 kPa	1002.5
283.14 K, 30974 kPa	1002.6
283.14 K, 30999 kPa	1002.5
283.14 K, 31030 kPa	1002.6
283.14 K, 31056 kPa	1002.5
283.14 K, 31082 kPa	1002.6
283.14 K, 31108 kPa	1002.7
283.14 K, 31138 kPa	1002.5
283.14 K, 31165 kPa	1002.5
283.14 K, 31191 kPa	1002.7
283.14 K, 31223 kPa	1002.6
283.14 K, 31249 kPa	1002.7
283.14 K, 31275 kPa	1002.7
283.14 K, 31306 kPa	1002.7
283.14 K, 31332 kPa	1002.7
283.14 K, 31358 kPa	1002.7
283.14 K, 31390 kPa	1002.7
283.14 K, 31416 kPa	1002.8
283.14 K, 31443 kPa	1002.8
283.14 K, 31474 kPa	1002.7
283.14 K, 31501 kPa	1002.8
283.14 K, 31533 kPa	1002.8
283.14 K, 31560 kPa	1002.7
283.14 K, 31587 kPa	1002.8
283.14 K, 31614 kPa	1002.8
283.14 K, 31646 kPa	1002.9
283.14 K, 31672 kPa	1002.9
283.14 K, 31699 kPa	1003
283.14 K, 31732 kPa	1002.8
283.14 K, 31759 kPa	1002.8
283.14 K, 31791 kPa	1002.9
283.14 K, 31818 kPa	1002.9
283.14 K, 31845 kPa	1003
283.14 K, 31878 kPa	1002.9
283.14 K, 31905 kPa	1003.1
283.14 K, 31932 kPa	1002.9
283.14 K, 31960 kPa	1003
283.14 K, 31994 kPa	1003
283.14 K, 32021 kPa	1003
283.14 K, 32054 kPa	1003.1
283.14 K, 32082 kPa	1003
283.14 K, 32109 kPa	1003.2
283.14 K, 32143 kPa	1003.1
283.14 K, 32170 kPa	1003.1
283.14 K, 32198 kPa	1003.1
283.14 K, 32231 kPa	1003.2
283.14 K, 32260 kPa	1003.1
283.14 K, 32288 kPa	1003.2
283.14 K, 32321 kPa	1003.2
283.14 K, 32350 kPa	1003.3
283.14 K, 32378 kPa	1003.2
283.14 K, 32406 kPa	1003.3
283.14 K, 32441 kPa	1003.2
283.14 K, 32469 kPa	1003.3
283.14 K, 32503 kPa	1003.3
283.14 K, 32531 kPa	1003.3
283.14 K, 32560 kPa	1003.4
283.14 K, 32595 kPa	1003.3
283.14 K, 32624 kPa	1003.5
283.14 K, 32653 kPa	1003.3
283.14 K, 32687 kPa	1003.3
283.14 K, 32718 kPa	1003.3
283.14 K, 32747 kPa	1003.4
283.14 K, 32776 kPa	1003.4
283.14 K, 32810 kPa	1003.5
283.14 K, 32840 kPa	1003.5
283.14 K, 32869 kPa	1003.5
283.14 K, 32898 kPa	1003.6
283.14 K, 32934 kPa	1003.4
283.14 K, 32963 kPa	1003.5
283.14 K, 32992 kPa	1003.5
283.14 K, 33028 kPa	1003.6
283.14 K, 33057 kPa	1003.6
283.14 K, 33093 kPa	1003.5
283.14 K, 33125 kPa	1003.6
283.14 K, 33155 kPa	1003.7
283.14 K, 33185 kPa	1003.6
283.14 K, 33215 kPa	1003.7
283.14 K, 33251 kPa	1003.7
283.14 K, 33281 kPa	1003.7
283.14 K, 33311 kPa	1003.6
283.14 K, 33347 kPa	1003.7
283.14 K, 33377 kPa	1003.6
283.14 K, 33414 kPa	1003.7
283.14 K, 33444 kPa	1003.8
283.14 K, 33474 kPa	1003.8
283.14 K, 33511 kPa	1003.8
283.14 K, 33542 kPa	1003.9
283.14 K, 33572 kPa	1003.8
283.14 K, 33604 kPa	1003.8
283.14 K, 33641 kPa	1003.9
283.14 K, 33671 kPa	1003.9
283.14 K, 33708 kPa	1003.8
283.14 K, 33739 kPa	1003.8
283.14 K, 33770 kPa	1003.8
283.14 K, 33808 kPa	1004
283.14 K, 33839 kPa	1004
283.14 K, 33870 kPa	1003.9
283.14 K, 33907 kPa	1004
283.14 K, 33938 kPa	1003.9
283.14 K, 34406 kPa	1004.3
283.14 K, 34575 kPa	1004.3
283.14 K, 34576 kPa	1004.3
283.15 K, 100.4 kPa	985.9
